# According to patent publication US20110092517A1, “Use of PPAR Delta Ligands for the Treatment or Prevention of Inflammation or Energy Metabolism/Production Related Diseases” (Cerenis Therapeutics S.A. & Nippon Chemiphar Co., Ltd., priority 2009, published 2011):
# Where “and” joins values, the source holds several entries; their conditions need not be identical. Equal values may be shown once. Entries after “also recorded” stand apart in the source; their conditions may differ. Read-outs that look alike come from different tables or passages of the source.
# Key:
# [1] = target: T1, mouse PPARα (Mus musculus, UniProt P23204); test: GAL4-PPAR chimera transactivation assay in CV-1 cells at 10% or 0.1% serum (Example 4); type: cell-based; settings: read-out: GAL4-chimera (mouse) EC50 (μM) hPPARα
# T1 construct: amino acids 167-468 for hs and m; expressed in transfected cells; host or cells: CV-1
# T1 sequence (P23204 167-468): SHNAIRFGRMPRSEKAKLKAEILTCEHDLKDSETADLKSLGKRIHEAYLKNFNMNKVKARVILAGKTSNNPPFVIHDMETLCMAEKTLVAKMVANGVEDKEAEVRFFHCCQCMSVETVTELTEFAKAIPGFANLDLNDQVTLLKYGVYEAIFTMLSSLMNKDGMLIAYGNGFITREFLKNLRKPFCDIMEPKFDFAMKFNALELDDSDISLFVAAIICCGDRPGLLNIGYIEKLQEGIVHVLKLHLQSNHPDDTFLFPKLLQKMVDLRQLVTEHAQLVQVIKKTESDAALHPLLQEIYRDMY
# [2] = target: T2, mouse PPARδ (Mus musculus, UniProt P35396); test: as above; type: cell-based; settings: read-out: GAL4-chimera (mouse) EC50 (μM) hPPARδ
# T2 construct: amino acids 139-440 for m; expressed in transfected cells; host or cells: CV-1
# T2 sequence (P35396 139-440): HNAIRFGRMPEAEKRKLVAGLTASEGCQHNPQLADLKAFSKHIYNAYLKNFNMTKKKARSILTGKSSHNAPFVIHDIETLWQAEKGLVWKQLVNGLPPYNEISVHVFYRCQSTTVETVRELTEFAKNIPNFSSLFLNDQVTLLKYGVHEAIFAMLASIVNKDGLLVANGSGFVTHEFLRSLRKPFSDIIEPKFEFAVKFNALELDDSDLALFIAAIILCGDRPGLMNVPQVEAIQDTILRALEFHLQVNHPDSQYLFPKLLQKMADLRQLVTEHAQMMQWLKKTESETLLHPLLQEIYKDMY
# [3] = Body weight follow-up during treatment in rats fed a high fat/medium fructose diet (WD); type: in vivo, rat; settings: oral once daily
# Text: The first set of rats was undergoing an OGTT after 3 weeks of treatment (half rats/group of the clamp arm) and the second set was also undergoing an OGTT after 3 weeks of treatment (half rats/group of clamp arm) and the Histology study (3 rats/group). […] Homogenous mild obese and insulin resistant rats were allocated into the different treatment groups and western diet was continued until the end of the experiment. Given that, the 2 series started with a gap of one week Dosage regimen: Rats were treated once daily via the oral route, in the morning. The duration of the treatment was between 5 and 5.5 weeks. […], 10 mg/Kg (n=12) […] The second set of rats was weighted at 8:30 on days 17 and 21, at 1:45 pm on day 24 and at 11:10 am on day 28.
# [4] = Plasma biochemistry after 17 days of treatment in WD fed rats (glycemia, insulin, HOMA-IR, adiponectin, FFA, TG); type: in vivo, rat
# [5] = Euglycemic-hyperinsulinemic 2 steps clamp with 3H-glucose after 5 weeks of treatment in WD fed rats; type: in vivo, rat
# Description: After 4 weeks of treatment, a catheter was implanted into the femoral vein under isoflurane anaesthesia and a period of 5-6 days was respected for recovery. […] The morning of the clamp procedure, rats were treated and fasted for 6 hours prior to tracer, glucose and insulin infusions. The beginning of the clamp procedure was performed in the middle of the dark cycle.
# The euglycemic hyperinsulinemic 2 steps insulin clamp was performed using 0.2 U/kg/h and 0.8 U/kg/h insulin infusion associated with 3H-glucose infusion. We then assessed:
# During the clamp procedure, a bolus (30 μCi) of D-[3-3H]glucose was first injected followed by 4 μCi/min/kg infusion rate during all the experiment to ensure a detectable plasma D[3-3H]glucose enrichment. A bolus of insulin (100 mU) was first injected, and insulin was then infused at a rate of 0.2 U/kg/h for the first 2 hours and 0.8 U/kg/h from 120 minutes to 210 minutes.
# Throughout the infusion, glycaemia was assessed with a blood glucose meter from the tip of the tail vein when needed. Euglycemia was maintained by periodically (every 10 minutes) adjusting a variable infusion of 30% glucose. Plasma glucose concentrations and D-[3-3H]glucose specific activity were determined during stable phase in 10 μl of blood sampled from the tip of the tail vein every 20 minutes from 60 to 120 minutes during the first step and from 150 to 210 minutes during the second step.
# For glucose turnover measurements, D-[3-3H]glucose enrichments were determined from total blood after deproteinization by a Zn(OH)2 precipitate. Briefly, an aliquot of the supernatant was evaporated to dryness to determine the radioactivity corresponding to D-3-3H. In a second aliquot of the same supernatant, glucose concentration was assessed by the glucose oxidase method (Biomérieux, France).
# Calculations for glucose turnover measurements were made from parameters obtained during the infusions in steady-state condition ([…]). Briefly, the D-[3-3H]glucose specific activity was calculated by dividing the D-[3-3H]glucose enrichment by the plasma glucose concentration. The whole body glucose turnover rate was calculated by dividing the rate of D[3-3H]glucose by the D-[3-3H]glucose plasma specific activity. For each rat, the mean values were calculated and averaged with values from rats of the same group. The whole body glycolysis rate was measured by assessing the amount of tritiated water accumulated in the blood during the 3H-glucose infusion and the whole body glycogen synthesis rate was calculated by the difference between the whole body glucose turnover and the whole body glycolysis rate.
# [6] = Triglycerides content in the liver after 5 weeks of treatment in WD fed rats (enzymatic-colorimetric method); type: in vivo, rat; settings: pioglitazone 10, GW501516 10, compound I.1 at any used dose
# Description: (§1) At the end of the clamp procedure (9.5 hours fasting), perirenal, retroperitoneal, epididymal and inguinal fat pads and liver weights were recorded. Blood was collected from cardiac puncture and plasmas were stored at −80° C. for further assays if needed (depending on the radioactive state of samples). Liver triglyceride content was assessed (enzymatic-colorimetric method) as well as liver and adipose tissue TNF-α content (ELISA method).
# [7] = system: TNF-α; test: TNF-α content in liver and epididymal white adipose tissue after 5 weeks of treatment in WD fed rats (ELISA); type: in vivo, rat; settings: metformin 50, GW501516 10, compound I.1 10 mg/kg (alone or +metformin 50 mg/kg)
# Description: as §1
compound,measurement,setting,value
"Cc1cc(C(=O)CCc2sc(-c3ccc(C(F)(F)F)cc3)nc2C(C)C)ccc1OCC(=O)O [compound I.1, 4-[3-[4-Isopropyl-2-[4-(trifluoromethyl)phenyl]-5-thiazolyl]propionyl]-2-methylphenoxyacetic acid]",EC50,[1]; 0.1% serum,> 10 µM
same,EC50,[1]; 10% serum,> 10 µM
same,EC50,[2]; 0.1% serum,0.065 ± 0.001 µM
same,EC50,[2]; 10% serum,0.327 ± 0.07 µM
same,Body weight / body weight gain during treatment,[3]; compound I.1 3 mg/kg (alone or +metformin 50 mg/kg),did not affect body weight gain
same,Body weight / body weight gain during treatment,"[3]; pioglitazone 10, metformin 50, GW501516 10, compound I.1 10 mg/kg (alone or +metformin 50 mg/kg)","decreased thereafter body weight gain, until a significant effect after 4 weeks of treatment"
same,Decrease of HOMA-IR,"[4]; 4 h fasted, pioglitazone 10, metformin 50, GW501516 10, compound I.1 10 mg/kg",~25% and 28%
same,Plasma adiponectin levels,"[4]; pioglitazone 10, metformin 50, GW501516 10, compound I.1 3 and 10 mg/kg",did not prevent a decrease
same,Insulin resistance / insulin sensitizing effect (overall),"[5]; WD fed rats, after 5 weeks, compound I.1 dose not specified (3 and 10 mg/kg groups), pioglitazone 10, metformin 50 mg/kg","improved insulin resistance in a lesser extent than pioglitazone and metformin, but was more effective than GW501516; also recorded: insulin sensitizing effect, less marked than metformin"
same,Whole body glucose oxidation,"[5]; WD fed rats, clamp after 5 weeks, metformin 50 mg/kg, compound I.1 dose not specified, alone or associated",tended to increase
same,Increase of GIR (glucose infusion rate) during the first step,"[5]; clamp 0.2 U/kg/h insulin, after 5 weeks, compound I.1 3 mg/kg",105%
same,Decrease of HGP (hepatic glucose production),"[5]; clamp 0.2 U/kg/h insulin, compound I.1 3 mg/kg",22%
same,Increase of glycolysis,"[5]; clamp 0.8 U/kg/h insulin, metformin 50, GW501516 10, compound I.1 10 mg/kg (alone or +metformin 50 mg/kg)",42%
same,Triglycerides content in the liver,[6],did not affect; also recorded: did not significantly decrease
same,Decrease of TNF-α levels in epididymal white adipose tissues,[7],51%
